Measurements taken from ChEMBL document CHEMBL3808348, “Rational Design, Synthesis, and Biological Evaluation of 7-Azaindole Derivatives as Potent Focused Multi-Targeted Kinase Inhibitors” (J Med Chem, 2016).

How the values were obtained:
[1] = molecular target: Fibroblast growth factor receptor 2 (Homo sapiens) (UniProt P21802); test: Inhibition of His-tagged human recombinant FGFR2 (403 to 822 residues) expressed in baculovirus using Fluorescein-Poly GT as substrate at 100 nM
[2] = molecular target: Vascular endothelial growth factor receptor 2 (Homo sapiens) (UniProt P35968); test: Inhibition of full length His-tagged human recombinant VEGFR2 expressed in baculovirus using Fluorescein-Poly GT as substrate at 100 nM
[3] = molecular target: Proto-oncogene tyrosine-protein kinase Src (Homo sapiens, UniProt P12931); test: Inhibition of full length His-tagged human recombinant cSRC expressed in baculovirus using Fluorescein-Poly GT as substrate at 100 nM
[4] = molecular target: Serine/threonine-protein kinase B-raf (Homo sapiens) (UniProt P15056); test: Inhibition of full length GST-tagged human recombinant BRAF expressed in baculovirus using Fluorescein-MAP2K1 as substrate at 100 nM
HepG2 = test: Antiproliferative activity against human HepG2 cells after 72 hrs by MTT assay; type: functional, cell-based; conditions: HepG2, 72 h
HUVEC = test: Antiangiogenic activity in HUVEC after 72 hrs by MTT assay; type: functional, cell-based; conditions: Homo sapiens
[5] = molecular target: Epidermal growth factor receptor (Homo sapiens, UniProt P00533); test: Inhibition of GST-tagged human recombinant EGFR (668 to1210 residues) expressed in baculovirus using Fluorescein-Poly GT as substrate at 100 nM
[6] = molecular target: Platelet-derived growth factor receptor alpha (Homo sapiens, UniProt P16234); test: Inhibition of full length GST-tagged human recombinant PDGFRalpha expressed in baculovirus using Fluorescein-Poly GT as substrate at 100 nM
Sequence of Platelet-derived growth factor receptor alpha (P16234 whole entry): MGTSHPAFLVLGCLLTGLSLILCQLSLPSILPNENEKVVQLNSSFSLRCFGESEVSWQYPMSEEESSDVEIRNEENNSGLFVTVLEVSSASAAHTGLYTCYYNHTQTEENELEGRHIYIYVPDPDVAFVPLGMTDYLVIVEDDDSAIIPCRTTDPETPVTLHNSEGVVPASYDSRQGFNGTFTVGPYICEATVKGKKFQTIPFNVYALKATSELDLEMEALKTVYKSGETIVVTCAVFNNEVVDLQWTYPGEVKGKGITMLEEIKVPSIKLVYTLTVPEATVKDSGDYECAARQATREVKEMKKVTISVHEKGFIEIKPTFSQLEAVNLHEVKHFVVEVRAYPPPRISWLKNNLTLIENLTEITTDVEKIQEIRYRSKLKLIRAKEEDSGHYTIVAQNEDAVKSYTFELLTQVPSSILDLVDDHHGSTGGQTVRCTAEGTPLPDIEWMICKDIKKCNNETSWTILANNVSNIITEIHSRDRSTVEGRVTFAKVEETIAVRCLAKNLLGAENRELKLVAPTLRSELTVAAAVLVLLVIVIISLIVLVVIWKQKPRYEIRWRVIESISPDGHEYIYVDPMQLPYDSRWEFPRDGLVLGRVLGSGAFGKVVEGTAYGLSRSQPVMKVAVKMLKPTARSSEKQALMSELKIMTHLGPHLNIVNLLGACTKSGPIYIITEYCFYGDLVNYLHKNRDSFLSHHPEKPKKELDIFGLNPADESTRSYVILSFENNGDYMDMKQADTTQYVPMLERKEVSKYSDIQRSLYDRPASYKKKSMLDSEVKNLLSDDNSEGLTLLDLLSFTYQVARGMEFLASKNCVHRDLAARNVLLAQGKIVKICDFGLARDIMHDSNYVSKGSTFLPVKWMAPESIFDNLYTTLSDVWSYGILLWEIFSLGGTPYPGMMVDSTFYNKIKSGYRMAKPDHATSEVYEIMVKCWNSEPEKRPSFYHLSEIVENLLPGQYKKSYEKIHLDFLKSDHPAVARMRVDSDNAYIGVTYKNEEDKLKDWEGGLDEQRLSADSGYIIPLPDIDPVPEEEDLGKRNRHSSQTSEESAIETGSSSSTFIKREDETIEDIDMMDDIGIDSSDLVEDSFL

Sequence of Vascular endothelial growth factor receptor 2 (Homo sapiens) (P35968 whole entry): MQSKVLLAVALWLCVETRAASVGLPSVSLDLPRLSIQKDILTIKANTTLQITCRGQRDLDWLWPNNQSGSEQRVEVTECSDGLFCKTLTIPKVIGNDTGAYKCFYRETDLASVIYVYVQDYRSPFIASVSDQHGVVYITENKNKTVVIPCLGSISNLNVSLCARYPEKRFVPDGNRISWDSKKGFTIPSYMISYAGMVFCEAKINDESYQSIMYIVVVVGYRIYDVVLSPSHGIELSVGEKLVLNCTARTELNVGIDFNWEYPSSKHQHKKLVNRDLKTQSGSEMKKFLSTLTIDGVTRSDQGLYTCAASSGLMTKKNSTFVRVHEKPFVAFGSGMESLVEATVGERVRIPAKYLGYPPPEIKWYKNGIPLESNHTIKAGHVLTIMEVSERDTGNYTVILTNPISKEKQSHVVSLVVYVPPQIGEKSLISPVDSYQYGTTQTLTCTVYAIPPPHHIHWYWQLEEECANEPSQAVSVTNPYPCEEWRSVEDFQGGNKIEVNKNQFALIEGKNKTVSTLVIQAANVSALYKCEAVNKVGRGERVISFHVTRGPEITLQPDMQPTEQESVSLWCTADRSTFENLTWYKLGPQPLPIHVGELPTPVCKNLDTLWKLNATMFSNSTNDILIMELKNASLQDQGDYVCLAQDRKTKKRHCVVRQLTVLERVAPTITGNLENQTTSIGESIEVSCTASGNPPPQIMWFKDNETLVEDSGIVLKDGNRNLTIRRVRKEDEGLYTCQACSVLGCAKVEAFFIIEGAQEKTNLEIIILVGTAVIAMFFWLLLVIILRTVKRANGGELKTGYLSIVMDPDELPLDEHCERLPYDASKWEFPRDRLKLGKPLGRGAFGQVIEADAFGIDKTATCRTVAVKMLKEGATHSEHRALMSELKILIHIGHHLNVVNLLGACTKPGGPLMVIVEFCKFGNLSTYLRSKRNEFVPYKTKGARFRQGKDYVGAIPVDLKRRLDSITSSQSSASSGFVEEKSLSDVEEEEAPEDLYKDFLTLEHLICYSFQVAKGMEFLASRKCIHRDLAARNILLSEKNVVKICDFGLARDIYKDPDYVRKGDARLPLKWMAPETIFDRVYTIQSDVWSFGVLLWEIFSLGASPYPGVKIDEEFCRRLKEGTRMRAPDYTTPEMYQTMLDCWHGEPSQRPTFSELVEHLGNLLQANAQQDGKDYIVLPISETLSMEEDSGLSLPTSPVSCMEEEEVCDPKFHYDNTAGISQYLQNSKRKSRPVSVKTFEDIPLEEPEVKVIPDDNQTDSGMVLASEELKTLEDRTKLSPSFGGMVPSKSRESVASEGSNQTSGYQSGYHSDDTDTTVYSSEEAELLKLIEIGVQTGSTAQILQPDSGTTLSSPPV
Sequence of Proto-oncogene tyrosine-protein kinase Src (P12931 2-536 limits assumed): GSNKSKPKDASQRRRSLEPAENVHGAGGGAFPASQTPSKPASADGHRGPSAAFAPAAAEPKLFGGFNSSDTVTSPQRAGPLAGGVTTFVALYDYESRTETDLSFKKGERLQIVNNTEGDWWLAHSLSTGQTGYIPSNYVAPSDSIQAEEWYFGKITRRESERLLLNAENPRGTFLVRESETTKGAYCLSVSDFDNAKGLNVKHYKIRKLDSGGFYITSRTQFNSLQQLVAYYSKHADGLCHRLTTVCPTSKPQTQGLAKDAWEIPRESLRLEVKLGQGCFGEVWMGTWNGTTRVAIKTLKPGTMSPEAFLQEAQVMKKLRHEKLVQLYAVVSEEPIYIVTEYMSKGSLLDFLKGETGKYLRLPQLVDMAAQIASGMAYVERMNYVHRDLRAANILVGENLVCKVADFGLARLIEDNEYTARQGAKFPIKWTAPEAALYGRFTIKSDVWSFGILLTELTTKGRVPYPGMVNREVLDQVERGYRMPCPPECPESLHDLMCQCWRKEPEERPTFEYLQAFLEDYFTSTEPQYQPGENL
Sequence of Serine/threonine-protein kinase B-raf (Homo sapiens) (P15056 whole entry): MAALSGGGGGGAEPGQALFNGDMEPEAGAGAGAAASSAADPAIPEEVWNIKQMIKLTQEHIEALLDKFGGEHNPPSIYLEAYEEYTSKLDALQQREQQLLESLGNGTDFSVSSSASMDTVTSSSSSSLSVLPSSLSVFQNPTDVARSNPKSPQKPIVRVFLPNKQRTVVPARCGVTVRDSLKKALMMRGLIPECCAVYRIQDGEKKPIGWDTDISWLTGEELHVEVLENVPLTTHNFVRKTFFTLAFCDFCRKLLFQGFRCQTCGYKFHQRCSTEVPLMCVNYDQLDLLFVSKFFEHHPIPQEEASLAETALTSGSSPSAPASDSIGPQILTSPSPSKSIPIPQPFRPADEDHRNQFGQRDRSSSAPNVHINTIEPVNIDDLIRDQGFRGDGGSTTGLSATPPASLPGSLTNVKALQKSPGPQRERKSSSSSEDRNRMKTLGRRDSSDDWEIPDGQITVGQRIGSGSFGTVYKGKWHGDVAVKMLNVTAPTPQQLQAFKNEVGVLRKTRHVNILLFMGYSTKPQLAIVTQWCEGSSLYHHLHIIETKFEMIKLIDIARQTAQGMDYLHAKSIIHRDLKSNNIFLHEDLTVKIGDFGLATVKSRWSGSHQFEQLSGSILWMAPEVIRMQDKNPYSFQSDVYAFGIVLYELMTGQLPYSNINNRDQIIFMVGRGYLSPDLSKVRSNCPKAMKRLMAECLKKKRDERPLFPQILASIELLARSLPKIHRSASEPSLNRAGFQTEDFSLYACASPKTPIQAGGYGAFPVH
Sequence of Epidermal growth factor receptor (P00533 whole entry, the tested form may be a part): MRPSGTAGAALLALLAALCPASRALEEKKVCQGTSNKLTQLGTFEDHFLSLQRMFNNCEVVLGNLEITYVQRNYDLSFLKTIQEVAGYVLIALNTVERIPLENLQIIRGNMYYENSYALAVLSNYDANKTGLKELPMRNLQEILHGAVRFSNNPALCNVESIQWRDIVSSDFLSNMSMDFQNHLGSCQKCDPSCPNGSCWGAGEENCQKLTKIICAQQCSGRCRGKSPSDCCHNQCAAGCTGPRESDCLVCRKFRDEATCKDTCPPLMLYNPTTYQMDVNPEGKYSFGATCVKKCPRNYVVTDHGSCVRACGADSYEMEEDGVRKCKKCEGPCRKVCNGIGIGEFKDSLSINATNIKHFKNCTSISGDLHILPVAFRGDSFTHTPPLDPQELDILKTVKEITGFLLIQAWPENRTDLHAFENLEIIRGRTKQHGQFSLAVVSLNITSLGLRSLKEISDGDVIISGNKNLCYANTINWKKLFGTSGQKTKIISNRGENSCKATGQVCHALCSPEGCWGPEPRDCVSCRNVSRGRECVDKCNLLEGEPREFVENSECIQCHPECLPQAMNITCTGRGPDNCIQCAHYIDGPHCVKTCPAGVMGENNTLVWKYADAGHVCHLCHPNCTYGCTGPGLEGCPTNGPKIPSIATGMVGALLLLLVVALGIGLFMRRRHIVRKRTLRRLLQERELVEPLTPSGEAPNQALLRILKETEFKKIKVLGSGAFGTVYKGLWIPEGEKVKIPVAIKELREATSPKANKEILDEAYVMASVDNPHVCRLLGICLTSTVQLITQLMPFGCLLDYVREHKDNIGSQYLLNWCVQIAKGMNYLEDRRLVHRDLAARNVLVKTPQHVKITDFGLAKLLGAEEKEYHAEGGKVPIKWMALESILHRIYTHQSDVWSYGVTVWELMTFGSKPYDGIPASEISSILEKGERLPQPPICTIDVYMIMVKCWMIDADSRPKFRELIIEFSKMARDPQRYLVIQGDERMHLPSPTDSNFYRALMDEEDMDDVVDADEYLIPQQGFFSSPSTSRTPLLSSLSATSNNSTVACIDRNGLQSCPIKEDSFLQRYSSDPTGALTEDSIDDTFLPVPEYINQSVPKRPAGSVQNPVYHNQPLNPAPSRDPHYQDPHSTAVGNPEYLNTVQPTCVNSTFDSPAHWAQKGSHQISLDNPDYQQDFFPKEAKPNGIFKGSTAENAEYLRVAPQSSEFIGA

Row | Compound | inhibition [1] [%] | inhibition [2] [%] | inhibition [3] [%] | inhibition [4] [%] | EC50 (HepG2) [nM] | EC50 (HUVEC) [nM] | inhibition [5] [%] | inhibition [6] [%]
1 | CC(=O)c1cc2cc(CCc3cc(NC(=O)c4ccc(CN5CCN(C)CC5)cc4)ccc3C)cnc2[nH]1 | 18 | 92 | 77 | 67 | > 1000 | 118 | 86 | 86
2 | COC(=O)c1cc2cc(NCc3cc(NC(=O)c4ccc5[nH]ccc5c4)ccc3C)cnc2[nH]1 | -4 | 59 | 59 | 65 | > 1000 | 199 | 45 | 87
3 | COC(=O)c1cc2cc(NCc3cc(NC(=O)c4cccc(C)c4)ccc3C)cnc2[nH]1 | 6 | 72 | 84 | 74 | – | – | 32 | 87
4 | Cc1ccc(NC(=O)c2ccc(CN3CCC(N(C)C)C3)c(C(F)(F)F)c2)cc1CNc1cnc2[nH]c(C(=O)O)cc2c1 (configuration not stated) | 71 | 80 | 86 | 33 | – | – | 98 | 66
5 | COC(=O)c1cc2cc(NCc3cc(NC(=O)c4cccc(C(C)C)c4)ccc3C)cnc2[nH]1 | 15 | 32 | 99 | 24 | – | – | 52 | 61
6 | COC(=O)c1cc2cc(NCc3cc(NC(=O)c4ccc(Cl)c(C(F)(F)F)c4)ccc3C)cnc2[nH]1 | 5 | 9 | 86 | 11 | – | – | 64 | 71
7 | COC(=O)c1cc2cc(NCc3cc(NC(=O)c4cc[nH]c4)ccc3C)cnc2[nH]1 | 4 | 37 | 11 | 51 | – | – | 15 | 71
8 | COC(=O)c1cc2cc(CCc3cc(NC(=O)c4ccc(CN5CCC(N(C)C)C5)c(C(F)(F)F)c4)ccc3C)cnc2[nH]1 (configuration not stated) | 101 | 102 | 101 | 64 | > 1000 | 171 | 97 | 105
9 | COC(=O)c1cc2cc(NCc3cc(NC(=O)c4ccnc(C)c4)ccc3C)cnc2[nH]1 | -6 | 46 | 51 | 85 | > 1000 | 986 | 49 | 82
10 | COC(=O)c1cc2cc(NCc3cc(NC(=O)c4cccc(C(F)(F)F)c4)ccc3C)cnc2[nH]1 | 7 | 38 | 108 | 39 | – | – | 63 | 68
11 | COC(=O)c1cc2cc(NCc3cc(NC(=O)c4ccc(-c5csc(C)n5)cc4)ccc3C)cnc2[nH]1 | -1 | 13 | 72 | 35 | – | – | 66 | 74
12 | COC(=O)c1cc2cc(COc3cc(NC(=O)c4ccc(CN5CCC(N(C)C)C5)c(C(F)(F)F)c4)ccc3C)cnc2[nH]1 (configuration not stated) | 69 | 86 | 87 | 15 | > 1000 | 426 | 93 | 96
13 | COC(=O)c1cc2cc(NCc3cc(NC(=O)c4ccnc(C(F)(F)F)c4)ccc3C)cnc2[nH]1 | -2 | 13 | 42 | -7 | – | – | 32 | 42
14 | COC(=O)c1cc2cc(NCc3cc(NC(=O)c4cccc(Br)c4)ccc3C)cnc2[nH]1 | 1 | 59 | 85 | 63 | – | – | 35 | 87
15 | COC(=O)c1cc2cc(NCc3cc(NC(=O)c4ccc(CN5CCN(C)CC5)cc4)ccc3C)cnc2[nH]1 | 21 | 73 | 93 | 60 | > 1000 | > 1000 | 81 | 85
16 | COC(=O)c1cc2cc(CNc3cc(NC(=O)c4ccc(CN5CCN(C)CC5)cc4)ccc3C)cnc2[nH]1 | 8 | 46 | 47 | 17 | – | – | 63 | 88
17 | COC(=O)c1cc2cc(/C=C/c3cc(NC(=O)c4ccc(CN5CCN(C)CC5)cc4)ccc3C)cnc2[nH]1 | 2 | 51 | 40 | 24 | – | – | 38 | 88

Row | Compound | inhibition [1] [%] | inhibition [2] [%] | inhibition [3] [%] | inhibition [4] [%] | EC50 (HepG2) [nM] | EC50 (HUVEC) [nM] | inhibition [5] [%] | inhibition [6] [%]
18 | COC(=O)c1cc2cc(NCc3cc(NC(=O)Cc4ccccc4Br)ccc3C)cnc2[nH]1 | 8 | 41 | 65 | 71 | – | – | -1 | 97
19 | COC(=O)c1cc2cc(NCc3cc(NC(=O)Cc4cccc(C(F)(F)F)c4)ccc3C)cnc2[nH]1 | 6 | 29 | 58 | 61 | – | – | 2 | 87
20 | Cc1cn(-c2cc(C(=O)Nc3ccc(C)c(CNc4cnc5[nH]c(C(=O)O)cc5c4)c3)cc(C(F)(F)F)c2)cn1 | 49 | 58 | 69 | 18 | – | – | 91 | 63
21 | Cc1ccc(NC(=O)c2ccc(CN3CCN(C)CC3)cc2)cc1CNc1cnc2[nH]c(C(=O)O)cc2c1 | 14 | 72 | 75 | 12 | – | – | 96 | 79
22 | COC(=O)c1cc2cc(/C=C/c3cc(NC(=O)c4ccc(CN5CCC(N(C)C)C5)c(C(F)(F)F)c4)ccc3C)cnc2[nH]1 (configuration not stated) | 38 | 61 | 55 | 33 | – | – | 59 | 68
23 | CC(=O)c1cc2cc(NCc3cc(NC(=O)c4ccc(CN5CCN(C)CC5)cc4)ccc3C)cnc2[nH]1 | 5 | 88 | 87 | 35 | – | – | 99 | 96
24 | COC(=O)c1cc2cc(NCc3cc(NC(=O)c4ccc(O)c(C(F)(F)F)c4)ccc3C)cnc2[nH]1 | 3 | 36 | 66 | 37 | – | – | 53 | 74
25 | CNC(=O)c1cc2cc(NCc3cc(NC(=O)c4ccc(CN5CCN(C)CC5)cc4)ccc3C)cnc2[nH]1 | 23 | 93 | 98 | 86 | > 1000 | > 1000 | 99 | 95
26 | COC(=O)c1cc2cc(NCc3cc(NC(=O)c4ccc5nn[nH]c5c4)ccc3C)cnc2[nH]1 | 4 | 18 | 34 | 69 | – | – | 20 | 77
27 | COC(=O)c1cc2cc(COc3cc(NC(=O)c4ccc(CN5CCN(C)CC5)cc4)ccc3C)cnc2[nH]1 | 14 | 67 | 58 | 7 | – | – | 81 | 98
28 | COC(=O)c1cc2cc(NCc3cc(NC(=O)c4ccc(C(F)(F)F)nc4)ccc3C)cnc2[nH]1 | -7 | 0 | 39 | 50 | – | – | 81 | 76
29 | COC(=O)c1cc2cc(NCc3cc(NC(=O)c4ccccc4OC)ccc3C)cnc2[nH]1 | 12 | 42 | 78 | 62 | – | – | 16 | 93
30 | CC(=O)c1cc2cc(NCc3cc(NC(=O)c4cc(-n5cnc(C)c5)cc(C(F)(F)F)c4)ccc3C)cnc2[nH]1 | 13 | 24 | 59 | 55 | – | – | 43 | 24
31 | COC(=O)c1cc2cc(NCc3cc(NC(=O)c4cc(N(C)C)cc(C(F)(F)F)c4)ccc3C)cnc2[nH]1 | 5 | 22 | 108 | 14 | – | – | 42 | 42
32 | COC(=O)c1cc2cc(NCc3cc(NC(=O)c4ccc(C)c(C(F)(F)F)c4)ccc3C)cnc2[nH]1 | 10 | 19 | 74 | 16 | – | – | 64 | 47
33 | COC(=O)c1cc2cc(NCc3cc(NC(=O)c4cccc(OC(F)(F)F)c4)ccc3C)cnc2[nH]1 | 8 | 40 | 105 | 29 | – | – | 39 | 66
34 | COC(=O)c1cc2cc(CCc3cc(NC(=O)c4ccc(CN5CCN(C)CC5)cc4)ccc3C)cnc2[nH]1 | 35 | 98 | 91 | – | – | – | 98 | 99
